Like-named read-outs stand apart in the source and are kept apart here.
Assays:
Tyk2 kinase domain (DH1) = Tyk2 kinase domain (DH1) (Homo sapiens (Human), UniProt P29597); assay: Tyk2 Radioactive Kinase Assay; type: biochemical; conditions: read-out: Tyk2 JH1% Inhibition @ 10 μM
Procedure, shortened: (§1)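 Single-point screen: 10 μM test compound, radioactive kinase read-out, percent inhibition reported for each kinase domain.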

JAK2 kinase domain (JH1) = JAK2 kinase domain (JH1) (Homo sapiens (Human), UniProt O60674); assay: JAK2 Radioactive Kinase Assay; type: biochemical; conditions: read-out: JAK2 JH1% Inhibition @ 10 μM
Chain of JAK2 kinase domain (JH1) (O60674 849-1124): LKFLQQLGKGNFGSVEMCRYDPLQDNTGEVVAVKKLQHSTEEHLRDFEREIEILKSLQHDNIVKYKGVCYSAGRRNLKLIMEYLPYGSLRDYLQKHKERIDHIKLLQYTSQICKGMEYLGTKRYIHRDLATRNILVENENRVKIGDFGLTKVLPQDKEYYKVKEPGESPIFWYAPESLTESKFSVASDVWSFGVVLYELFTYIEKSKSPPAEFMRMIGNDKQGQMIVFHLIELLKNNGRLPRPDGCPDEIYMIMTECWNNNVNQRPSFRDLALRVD
Procedure, shortened: as §1

[1] = target: human TYK2 (JH2domain-pseudokinase) (Homo sapiens (Human), UniProt P29597); assay: TYK2 JH2 Domain Binding Assay (KINOMEscan)
Chain of human TYK2 (JH2domain-pseudokinase) (P29597 556-888): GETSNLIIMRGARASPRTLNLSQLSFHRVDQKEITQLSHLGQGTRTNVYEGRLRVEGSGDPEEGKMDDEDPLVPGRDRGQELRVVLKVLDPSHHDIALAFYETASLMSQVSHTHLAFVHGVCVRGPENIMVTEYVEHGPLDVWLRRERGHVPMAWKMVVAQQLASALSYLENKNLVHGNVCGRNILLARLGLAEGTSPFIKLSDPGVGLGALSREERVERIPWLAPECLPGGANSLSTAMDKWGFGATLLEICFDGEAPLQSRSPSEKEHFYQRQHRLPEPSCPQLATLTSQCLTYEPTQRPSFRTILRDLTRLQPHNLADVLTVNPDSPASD
Procedure, shortened: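 The construct was human TYK2 G556–D888 fused to the NFkB DNA-binding domain and expressed in HEK293 cells; unpurified extract was incubated with compound and liganded beads for 1 hour at room temperature.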

Chain of Tyk2 kinase domain (DH1) (P29597 897-1176): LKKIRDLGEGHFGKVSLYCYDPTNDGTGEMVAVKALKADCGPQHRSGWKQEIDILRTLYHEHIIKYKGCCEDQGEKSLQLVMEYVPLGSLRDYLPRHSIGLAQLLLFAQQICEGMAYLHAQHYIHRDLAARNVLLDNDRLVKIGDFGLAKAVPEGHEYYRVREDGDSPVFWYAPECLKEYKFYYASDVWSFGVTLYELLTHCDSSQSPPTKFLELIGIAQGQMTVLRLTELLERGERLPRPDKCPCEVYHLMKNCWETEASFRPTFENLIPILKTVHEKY

| SMILES | inhibition at 10 µM (Tyk2 kinase domain (DH1); compound at 10 μM, ATP 10 μM) [%] | inhibition at 10 µM (JAK2 kinase domain (JH1); compound at 10 μM, ATP 10 μM) [%] | Kd [1] [nM] | inhibition at 10 µM (Tyk2 kinase domain (DH1); 10 μM compound, 10 μM ATP) [%] | inhibition at 10 µM (JAK2 kinase domain (JH1); 10 μM compound, 10 μM ATP) [%] |
| --- | --- | --- | --- | --- | --- |
| CNc1cc(-c2cn(C(C)C)c3ncc(C)cc23)nc2c(C(=O)N[C@H]3C[C@H]3F)cnn12 [I-257] | < 50 | < 50 | 0.2 to 1 | – | – |
| CNc1cc(Nc2cccnc2OC)nc2c(C(=O)NCC(C)CO)cnn12 (stereo not drawn) [I-434, N-(3-hydroxy-2-methylpropyl)-5-((2-methoxypyridin-3-yl)amino)-7-(methylamino)pyrazolo[1,5-a]pyrimidine-3-carboxamide] | < 50 | < 50 | < 0.2 | – | – |
| CNc1cc(-n2cc(N3CCOCC3)c3ncccc32)nc2c(C(=O)N[C@H]3C[C@H]3F)cnn12 [I-555] | < 50 | < 50 | 1 to 10 | – | – |
| CNc1cc(Nc2cccn(-c3ccccn3)c2=O)nc2c(C(=O)NCC(C)CO)cnn12 (stereo not drawn) [I-682] | < 50 | < 50 | 0.2 to 1 | – | – |
| CNc1cc(Nc2cc(C)cnc2OC(C)C)nc2c(C(=O)NC3CCC3)cnn12 [I-213] | < 50 | < 50 | 1 to 10 | – | – |
| CNc1cc(Nc2cccnc2OC2CC2)nc2c(C(=O)N[C@H]3[C@@H]4COC[C@@H]43)cnn12 [I-446] | < 50 | < 50 | 0.2 to 1 | – | – |
| CNc1cc(Nc2cccn(-c3ccccn3)c2=O)nc2c(C(=O)NCC(C)(C)CO)cnn12 [I-683, N-(3-hydroxy-2,2-dimethylpropyl)-7-(methylamino)-5-((2-oxo-2H-[1,2′-bipyridin]-3-yl)amino)pyrazolo[1,5-a]pyrimidine-3-carboxamide] | < 50 | < 50 | < 0.2 | – | – |
| CNc1cc(Nc2cccn(C3CCN(CCC#N)CC3)c2=O)nc2c(C(=O)NC3CC3)cnn12 [I-652, 5-((1-(1-(2-cyanoethyl)piperidin-4-yl)-2-oo-1,2-dihydropyridin-3-yl)amino)-N-cyclopropyl-7-(methylamino)pyrazolo[1,5-a]pyrimidine-3-carboxamide] | < 50 | < 50 | < 0.2 | – | – |
| CNc1cc(-c2cn(CCN3CCOCC3)c3ncccc23)nc2c(C(=O)N[C@@H]3CC[C@@H]3O)cnn12 [I-678] | < 50 | < 50 | 0.2 to 1 | – | – |
| CNc1cc(Nc2cc(Cl)cnc2OC(C)C)nc2c(C(N)=O)cnn12 [I-78] | < 50 | < 50 | < 0.2 | – | – |
| CNc1cc(Nc2cccc([C@H]3CCCOC3)n2)nc2c(C(=O)NCC(C)(C)CO)cnn12 [I-579] | < 50 | < 50 | < 0.2 | – | – |
| CNc1cc(Nc2cc(C)nc(N3CC[C@@H](O)C3)c2)nc2c(C(N)=O)cnn12 [I-60] | < 50 | < 50 | 1 to 10 | – | – |
| CNc1cc(Nc2cccc3ocnc23)nc2c(C(=O)N[C@H]3CC[C@@H]3OC)cnn12 [I-1115] | – | – | 1 to 10 | < 50 | < 50 |
| CNc1cc(Nc2cccnc2OC2CCC2)nc2c(C(=O)NC3CCC3)cnn12 [I-168] | < 50 | < 50 | 0.2 to 1 | – | – |
| CNc1cc(Nc2c(F)ccn(C(C)C)c2=O)nc2c(C(=O)NC3CC3)cnn12 [I-623] | < 50 | < 50 | 1 to 10 | – | – |
| Cc1c(Nc2cccnc2OC(C)C)nc2c(C(=O)NC3CC3)cnn2c1N [I-207, 7-amino-N-cyclopropyl-5-((2-isopropoxypyridin-3-yl)amino)-6-methylpyrazolo[1,5-a]pyrimidine-3-carboxamide] | < 50 | < 50 | 1 to 10 | – | – |
| [2H]C([2H])([2H])Oc1ncccc1Nc1cc(NC)n2ncc(C(=O)N[C@H]3CCC[C@H](O)C3)c2n1 [I-460] | < 50 | < 50 | < 0.2 | – | – |
| CNc1cc(-c2cn(CCN3CCOCC3)c3ncccc23)nc2c(C(=O)N[C@@H]3CC[C@H]3O)cnn12 [I-792, N-(2-hydroycyclobutyl)-7-(methylamino)-5-(1-(2-morpholinoethyl)-1H-pyrrolo[2,3-b]pyridine-3-yl)pyrazolo[1,5-a]pyrimidine-3-carboxamide] | < 50 | < 50 | < 0.2 | – | – |
| CNc1cc(Nc2cccc([C@H]3CCCCO3)n2)nc2c(C(=O)NCC3(CO)CC3)cnn12 [I-564] | < 50 | < 50 | < 0.2 | – | – |
| CNc1cc(Nc2cccnc2OC2COC2)nc2c(C(=O)NC3CCC3)cnn12 [I-298] | < 50 | < 50 | 1 to 10 | – | – |

Now from value to molecule:

| inhibition at 10 µM (Tyk2 kinase domain (DH1); compound at 10 μM, ATP 10 μM) [%] | inhibition at 10 µM (JAK2 kinase domain (JH1); compound at 10 μM, ATP 10 μM) [%] | Kd [1] [nM] | inhibition at 10 µM (Tyk2 kinase domain (DH1); 10 μM compound, 10 μM ATP) [%] | inhibition at 10 µM (JAK2 kinase domain (JH1); 10 μM compound, 10 μM ATP) [%] | SMILES |
| --- | --- | --- | --- | --- | --- |
| < 50 | < 50 | < 0.2 | – | – | CNc1cc(Nc2cccn(CCOC3CC3)c2=O)nc2c(C(=O)N[C@@H]3C[C@@H]3F)cnn12 [I-454] |
| < 50 | < 50 | < 0.2 | – | – | CNc1cc(Nc2cccnc2OC2CC2)nc2c(C(=O)N[C@H]3CC[C@H](O)C3)cnn12 (stereo in doubt) [I-461, 5-((2-cyclopropoxypyridin-3-yl)amino)-N-(3-hydroxycyclopentyl)-7-(methylamino)pyrazolo[1,5-a]pyrimidine-3-carboxamide] |
| < 50 | < 50 | < 0.2 | – | – | CNc1cc(Nc2cc(F)cn([C@@H]3CCCOC3)c2=O)nc2c(C(=O)N[C@H]3C[C@H]3F)cnn12 [I-558] |
| – | – | 0.2 to 1 | < 50 | < 50 | CNc1cc(Nc2cccn([C@@H]3CCCN(CCF)C3)c2=O)nc2c(C(=O)NC3CC3)cnn12 [I-881] |
| < 50 | < 50 | < 0.2 | – | – | CNc1cc(Nc2cccn(-c3ccn(C)n3)c2=O)nc2c(C(=O)N[C@H]3C[C@H]3F)cnn12 [I-140] |
| < 50 | < 50 | 0.2 to 1 | – | – | CNc1cc(Nc2cccnc2OC)nc2c(C(=O)N[C@H]3CC[C@H](O)C3)cnn12 [I-467] |
| – | – | 0.2 to 1 | < 50 | < 50 | CNc1cc(Nc2cccn(-c3ccccc3F)c2=O)nc2c(C(=O)N[C@@H]3CC[C@@H]3O)cnn12 [I-1036] |
| < 50 | < 50 | < 0.2 | – | – | CNc1cc(Nc2cccn([C@H]3CCCOC3)c2=O)nc2c(C(=O)N[C@H]3CC[C@@H]3O)cnn12 [I-697] |
| < 50 | < 50 | 0.2 to 1 | – | – | CNc1cc(Nc2cccn([C@H]3CC[C@](C)(OC)CC3)c2=O)nc2c(C(=O)N[C@H]3CC[C@H]3O)cnn12 [I-723, N-((1R,2S)-2-hydroxycyclobutyl)-5-((1-((1R,4R)-4-methoxy-4-methylcyclohexyl)-2-oxo-1,2-dihydropyridin-3-yl)amino)-7-(methylamino)pyrazolo[1,5-a]pyrimidine-3-carboxamide] |
| – | – | < 0.2 | < 50 | < 50 | CNc1cc(Nc2cccn([C@H]3CCCN(CCF)C3)c2=O)nc2c(C(=O)NC3CC3)cnn12 [I-880] |
| < 50 | < 50 | 0.2 to 1 | – | – | CNc1cc(Nc2cccn([C@@H]3CCCN(C)C3)c2=O)nc2c(C(=O)N[C@@H]3C[C@@H]3F)cnn12 [I-536] |
| < 50 | < 50 | 0.2 to 1 | – | – | CNc1cc(Nc2cccnc2OC)nc2c(C(=O)N[C@@H]3CC[C@@H]3O)cnn12 [I-430] |
| < 50 | < 50 | < 0.2 | – | – | CNc1cc(Nc2cccn([C@H]3CCCOC3)c2=O)nc2c(C(=O)N[C@@H]3C[C@@H]3F)cnn12 [I-475] |
| < 50 | < 50 | 0.2 to 1 | – | – | COc1ncccc1Nc1cc(NC2CC2)n2ncc(C(=O)N[C@@H]3C[C@@H]3F)c2n1 [I-337, 7-(cyclopropylamino)-N-((1R,2S)-2-fluorocyclopropyl)-5-((2-methoxypyridin-3-yl)amino)pyrazolo[1,5-a]pyrimidine-3-carboxamide] |
